Reference: ChEMBL document CHEMBL4828758, “Elucidation of Distinct Modular Assemblies of Smoothened Receptor by Bitopic Ligand Measurement” (J Med Chem, 2021)
Active and inactive are the calls of the source. The rule behind the calls is not given here.

Tests used:
Type in all cases: functional, cell-based
[1] = molecular target: Protein smoothened (Mus musculus) (UniProt P56726); assay: Agonist activity at SMO in mouse NIH3T3 cells assessed as induction of SMO accumulation in primary cilia incubated for 12 hrs by fluorescence method; conditions: filed as agonist
Chain of Protein smoothened (Mus musculus) (P56726 whole entry): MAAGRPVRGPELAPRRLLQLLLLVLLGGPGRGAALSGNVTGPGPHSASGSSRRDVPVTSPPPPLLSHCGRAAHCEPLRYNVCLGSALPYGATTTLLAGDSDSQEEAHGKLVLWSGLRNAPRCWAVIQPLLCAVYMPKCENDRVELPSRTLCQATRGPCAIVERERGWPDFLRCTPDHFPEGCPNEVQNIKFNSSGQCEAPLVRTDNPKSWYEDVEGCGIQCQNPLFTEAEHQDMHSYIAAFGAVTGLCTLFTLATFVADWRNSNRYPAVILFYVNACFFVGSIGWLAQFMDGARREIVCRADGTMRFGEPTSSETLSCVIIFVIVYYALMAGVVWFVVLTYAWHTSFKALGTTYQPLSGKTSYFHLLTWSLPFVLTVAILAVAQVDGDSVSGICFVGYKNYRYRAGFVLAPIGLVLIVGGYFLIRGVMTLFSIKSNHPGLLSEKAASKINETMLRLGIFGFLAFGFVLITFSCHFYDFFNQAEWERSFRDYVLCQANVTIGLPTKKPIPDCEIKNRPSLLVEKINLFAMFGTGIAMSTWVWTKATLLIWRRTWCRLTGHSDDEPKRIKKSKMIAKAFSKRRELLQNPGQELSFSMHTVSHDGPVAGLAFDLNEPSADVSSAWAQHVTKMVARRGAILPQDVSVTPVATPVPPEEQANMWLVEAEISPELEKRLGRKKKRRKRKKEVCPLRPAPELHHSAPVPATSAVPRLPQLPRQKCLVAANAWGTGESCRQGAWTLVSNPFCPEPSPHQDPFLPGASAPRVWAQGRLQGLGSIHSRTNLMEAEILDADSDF

[2] = molecular target: Protein smoothened (Mus musculus) (UniProt P56726); assay: Agonist activity at SMO in mouse NIH3T3 cells assessed as fluorescent intensity of ciliary SMO incubated for 12 hrs by fluorescence method; conditions: filed as agonist
[3] = molecular target: Protein smoothened (Mus musculus) (UniProt P56726); assay: Agonist activity at SMO in mouse NIH3T3 cells assessed as induction of SMO accumulation in primary cilia incubated for 12 hrs by AlexaFluor 488/ DAPI staining based immunofluorescence method
[4] = molecular target: Protein smoothened (Mus musculus) (UniProt P56726); assay: (§1) Agonist activity at SMO in mouse NIH3T3 cells incubated for 2 hrs by Bright-Glo luciferase assay
Protein smoothened [5] = molecular target: T1, Protein smoothened (Mus musculus, UniProt P56726); assay: as §1
T1 sequence (P56726 whole entry): as above

Protein smoothened [6] = molecular target: T1, Protein smoothened; assay: Antagonist activity at SMO in mouse NIH3T3 cells preincubated for 2 hrs followed by SAG stimulation and measured after 24 hrs by Bright-Glo luciferase assay

SMILES: CN[C@H]1CC[C@H](N(Cc2cccc(-c3ccnc(OCCOCCOCCOCCn4cc(COCCOCCC#CCCC(C)(O)C5CC[C@H]6[C@@H]7CC=C8C[C@@H](O)CC[C@]8(C)[C@H]7CC[C@]56C)nn4)c3)c2)C(=O)c2sc3ccccc3c2Cl)CC1 (stereo partly specified)
- Activity [1]: Active
- Activity [2]: Active
- Activity ([3]; filed as agonist): Active

SMILES: CN[C@H]1CC[C@H](N(Cc2cccc(-c3ccnc(OCCn4cc(COCCCCCCC[C@](C)(O)[C@H]5CC[C@H]6[C@@H]7CC=C8C[C@@H](O)CC[C@]8(C)[C@H]7CC[C@@]65C)nn4)c3)c2)C(=O)c2sc3ccccc3c2Cl)CC1
- Activity [4]: inactive

SMILES: CN[C@H]1CC[C@H](N(Cc2cccc(-c3ccnc(OCCOCCOCCOCCn4cc(COCCOCCOCC(=O)N5C[C@@H](C)C[C@H]6O[C@]7(CC[C@@H]8C(=C7C)C[C@H]7[C@H]8CC=C8C[C@@H](O)CC[C@@]87C)[C@H](C)[C@@H]65)nn4)c3)c2)C(=O)c2sc3ccccc3c2Cl)CC1
- Activity [1]: Active
- Activity [2]: Active
- Activity ([3]; filed as agonist): Active

SMILES: CN[C@H]1CC[C@H](N(Cc2cccc(-c3ccnc(OCCOCCOCCOCCOCCOCCn4cc(COCCOCCOCCOCCOCCOCCOCCOCCOCCCCCC[C@@H](C)C5CC[C@H]6[C@@H]7CC=C8C[C@@H](O)CC[C@]8(C)[C@H]7CC[C@]56C)nn4)c3)c2)C(=O)c2sc3ccccc3c2Cl)CC1 (stereo partly specified)
- EC50 (Protein smoothened [5]): 200 nM

SMILES: CC(O)(CCCCCCOCCOCCOCCOCCOCCOCCOCc1cn(CCOCCOCCOCCOCCOCCS(=O)(=O)c2ccc(C(=O)Nc3ccc(Cl)c(-c4ccccn4)c3)c(Cl)c2)nn1)C1CC[C@H]2[C@@H]3CC=C4C[C@@H](O)CC[C@]4(C)[C@H]3CC[C@]12C (stereo partly specified)
- IC50 (Protein smoothened [6]): 20 nM

SMILES: [N-]=[N+]=NCCOCCOCCOCCOCCOCCS(=O)(=O)c1ccc(C(=O)Nc2ccc(Cl)c(-c3ccccn3)c2)c(Cl)c1
- IC50 (Protein smoothened [6]): 3000 nM

SMILES: CC(O)(CCCCCCOCCOCCOCCOCCOCCOCCOCCOCCOCc1cn(CCOCCOCCOCCOCCOCCS(=O)(=O)c2ccc(C(=O)Nc3ccc(Cl)c(-c4ccccn4)c3)c(Cl)c2)nn1)C1CC[C@H]2[C@@H]3CC=C4C[C@@H](O)CC[C@]4(C)[C@H]3CC[C@]12C (stereo partly specified)
- IC50 (Protein smoothened [6]): 20 nM

SMILES: CN[C@H]1CC[C@H](N(Cc2cccc(-c3ccnc(OC)c3)c2)C(=O)c2sc3ccccc3c2Cl)CC1
- EC50 (Protein smoothened [5]): 819 nM

SMILES: CN[C@H]1CC[C@H](N(Cc2cccc(-c3ccnc(OCCOCCOCCOCCOCCOCCn4cc(COCCOCCOCCOCCOCCOCCOCCCCCCC(C)(O)C5CC[C@H]6[C@@H]7CC=C8C[C@@H](O)CC[C@]8(C)[C@H]7CC[C@]56C)nn4)c3)c2)C(=O)c2sc3ccccc3c2Cl)CC1 (stereo partly specified)
- Activity [4]: inactive

SMILES: CN[C@H]1CC[C@H](N(Cc2cccc(-c3ccnc(OCCOCCOCCOCCn4cc(COCCCCCC[C@](C)(O)C5CC[C@H]6[C@@H]7CC=C8C[C@@H](O)CC[C@]8(C)[C@H]7CC[C@]56C)nn4)c3)c2)C(=O)c2sc3ccccc3c2Cl)CC1 (stereo partly specified)
- EC50 (Protein smoothened [5]): 8 nM

SMILES: CC(O)(CCCCCCOCCOCc1cn(CCOCCOCCOCCO)nn1)C1CC[C@H]2[C@@H]3CC=C4C[C@@H](O)CC[C@]4(C)[C@H]3CC[C@]12C (stereo partly specified)
- EC50 (Protein smoothened [5]): > 100000 nM

SMILES: CN[C@H]1CC[C@H](N(Cc2cccc(-c3ccnc(OCCOCCOCCn4cc(COCCCCCCC(C)(O)C5CC[C@H]6[C@@H]7CC=C8C[C@@H](O)CC[C@]8(C)[C@H]7CC[C@]56C)nn4)c3)c2)C(=O)c2sc3ccccc3c2Cl)CC1 (stereo partly specified)
- EC50 (Protein smoothened [5]): 8 nM

SMILES: CC1=C2C[C@H]3[C@@H](CC=C4C[C@@H](O)CC[C@@]43C)[C@@H]2CC[C@]12O[C@@H]1C[C@H](C)CN[C@H]1[C@H]2C
- Activity [1]: Active
- Activity [2]: Active

SMILES: CC(O)(CCCCCCO)C1CC[C@H]2[C@@H]3CC=C4C[C@@H](O)CC[C@]4(C)[C@H]3CC[C@]12C (stereo partly specified)
- EC50 (Protein smoothened [5]): > 100000 nM

SMILES: CN[C@H]1CC[C@H](N(Cc2cccc(-c3ccnc(OCCOCCOCCOCCOCCOCCn4cc(COCCOCCOCCOCCOCCOCCOCCCCCC[C@@H](C)C5CC[C@H]6[C@@H]7CC=C8C[C@@H](O)CC[C@]8(C)[C@H]7CC[C@]56C)nn4)c3)c2)C(=O)c2sc3ccccc3c2Cl)CC1 (stereo partly specified)
- EC50 (Protein smoothened [5]): 200 nM

SMILES: CN[C@H]1CC[C@H](N(Cc2cccc(-c3ccnc(OCCOCCOCCOCCn4cc(COCCOCCOCCOCCOCCOCCOCCCCCC[C@@H](C)C5CC[C@H]6[C@@H]7CC=C8C[C@@H](O)CC[C@]8(C)[C@H]7CC[C@]56C)nn4)c3)c2)C(=O)c2sc3ccccc3c2Cl)CC1 (stereo partly specified)
- EC50 (Protein smoothened [5]): 200 nM

SMILES: CN[C@H]1CC[C@H](N(Cc2cccc(-c3ccnc(OCCOCCOCCOCCn4cc(COCCOCCOCCOCCOCCOCCCCCC[C@](C)(O)C5CC[C@H]6[C@@H]7CC=C8C[C@@H](O)CC[C@]8(C)[C@H]7CC[C@]56C)nn4)c3)c2)C(=O)c2sc3ccccc3c2Cl)CC1 (stereo partly specified)
- Activity [4]: inactive

SMILES: C[C@H](CCCCCCOCCOCc1cn(CCOCCOCCOCCOCCOCCS(=O)(=O)c2ccc(C(=O)Nc3ccc(Cl)c(-c4ccccn4)c3)c(Cl)c2)nn1)C1CC[C@H]2[C@@H]3CC=C4C[C@@H](O)CC[C@]4(C)[C@H]3CC[C@]12C (stereo partly specified)
- Activity [3]: inactive

SMILES: CC(O)(CCCCCCOCCOCc1cn(CCOCCOCCS(=O)(=O)c2ccc(C(=O)Nc3ccc(Cl)c(-c4ccccn4)c3)c(Cl)c2)nn1)C1CC[C@H]2[C@@H]3CC=C4C[C@@H](O)CC[C@]4(C)[C@H]3CC[C@]12C (stereo partly specified)
- IC50 (Protein smoothened [6]): 20 nM

SMILES: CC(O)(CCCCCCOCCOCc1cn(CCOCCOCCOCCS(=O)(=O)c2ccc(C(=O)Nc3ccc(Cl)c(-c4ccccn4)c3)c(Cl)c2)nn1)C1CC[C@H]2[C@@H]3CC=C4C[C@@H](O)CC[C@]4(C)[C@H]3CC[C@]12C (stereo partly specified)
- IC50 (Protein smoothened [6]): 20 nM

SMILES: CN[C@H]1CC[C@H](N(Cc2cccc(-c3ccnc(OCCOCCOCCOCCn4cc(COCCOCCOCCOCCOCCCCCC[C@](C)(O)C5CC[C@H]6[C@@H]7CC=C8C[C@@H](O)CC[C@]8(C)[C@H]7CC[C@]56C)nn4)c3)c2)C(=O)c2sc3ccccc3c2Cl)CC1 (stereo partly specified)
- Activity [4]: inactive

SMILES: CN[C@H]1CC[C@H](N(Cc2cccc(-c3ccnc(OCCOCCOCCOCCn4cc(COCCOCCOCCOCCOCCOCCOCCCCCC[C@](C)(O)C5CC[C@H]6[C@@H]7CC=C8C[C@@H](O)CC[C@]8(C)[C@H]7CC[C@]56C)nn4)c3)c2)C(=O)c2sc3ccccc3c2Cl)CC1 (stereo partly specified)
- Activity [4]: inactive

SMILES: CN[C@H]1CC[C@H](N(Cc2cccc(-c3ccnc(OCCOCCOCCOCCn4cc(COCCOCCCCCC[C@](C)(O)C5CC[C@H]6[C@@H]7CC=C8C[C@@H](O)CC[C@]8(C)[C@H]7CC[C@]56C)nn4)c3)c2)C(=O)c2sc3ccccc3c2Cl)CC1 (stereo partly specified)
- Activity [4]: inactive
- Activity [1]: Active
- Activity [2]: Active
- Activity ([3]; filed as agonist): Active

SMILES: CC(O)(CCCCCCOCCOCCOCc1cn(CCOCCOCCOCCOCCOCCS(=O)(=O)c2ccc(C(=O)Nc3ccc(Cl)c(-c4ccccn4)c3)c(Cl)c2)nn1)C1CC[C@H]2[C@@H]3CC=C4C[C@@H](O)CC[C@]4(C)[C@H]3CC[C@]12C (stereo partly specified)
- IC50 (Protein smoothened [6]): 20 nM

SMILES: CN[C@H]1CC[C@H](N(Cc2cccc(-c3ccnc(OCCOCCOCCOCCn4cc(COCCOCCCCCC[C@@H](C)C5CC[C@H]6[C@@H]7CC=C8C[C@@H](O)CC[C@]8(C)[C@H]7CC[C@]56C)nn4)c3)c2)C(=O)c2sc3ccccc3c2Cl)CC1 (stereo partly specified)
- EC50 (Protein smoothened [5]): 200 nM
- Activity [1]: Active
- Activity [2]: Active
- Activity ([3]; filed as agonist): Active

SMILES: CN[C@H]1CC[C@H](N(Cc2cccc(-c3ccncc3)c2)C(=O)c2sc3ccccc3c2Cl)CC1
- EC50 (Protein smoothened [5]): 16.9 nM
- Activity [1]: Active
- Activity [2]: Active

SMILES: CN[C@H]1CC[C@H](N(Cc2cccc(-c3ccnc(OCCOCCOCCOCCn4cc(COCCOCCOCCOCCCCCC[C@@H](C)C5CC[C@H]6[C@@H]7CC=C8C[C@@H](O)CC[C@]8(C)[C@H]7CC[C@]56C)nn4)c3)c2)C(=O)c2sc3ccccc3c2Cl)CC1 (stereo partly specified)
- EC50 (Protein smoothened [5]): 200 nM

SMILES: CN[C@H]1CC[C@H](N(Cc2cccc(-c3ccnc(OCCOCCn4cc(COCCCCCC[C@](C)(O)[C@H]5CC[C@H]6[C@@H]7CC=C8C[C@@H](O)CC[C@]8(C)[C@H]7CC[C@@]65C)nn4)c3)c2)C(=O)c2sc3ccccc3c2Cl)CC1
- Activity [4]: inactive

SMILES: CN[C@H]1CC[C@H](N(Cc2cccc(-c3ccnc(OCCOCCOCCOCCn4cc(COCCOCCOCCCCCC[C@](C)(O)C5CC[C@H]6[C@@H]7CC=C8C[C@@H](O)CC[C@]8(C)[C@H]7CC[C@]56C)nn4)c3)c2)C(=O)c2sc3ccccc3c2Cl)CC1 (stereo partly specified)
- EC50 (Protein smoothened [5]): 8 nM

SMILES: CC(O)(CCCCCCOCCOCCOCCOCCOCc1cn(CCOCCOCCOCCOCCOCCS(=O)(=O)c2ccc(C(=O)Nc3ccc(Cl)c(-c4ccccn4)c3)c(Cl)c2)nn1)C1CC[C@H]2[C@@H]3CC=C4C[C@@H](O)CC[C@]4(C)[C@H]3CC[C@]12C (stereo partly specified)
- IC50 (Protein smoothened [6]): 20 nM

SMILES: CN[C@H]1CC[C@H](N(Cc2cccc(-c3ccnc(OCCOCCOCCOCCn4cc(COCCOCCOCCOCCCCCC[C@](C)(O)C5CC[C@H]6[C@@H]7CC=C8C[C@@H](O)CC[C@]8(C)[C@H]7CC[C@]56C)nn4)c3)c2)C(=O)c2sc3ccccc3c2Cl)CC1 (stereo partly specified)
- Activity [4]: inactive

SMILES: CN[C@H]1CC[C@H](N(Cc2cccc(-c3ccnc(OCCOCCOCCOCCn4cc(COCCO)nn4)c3)c2)C(=O)c2sc3ccccc3c2Cl)CC1
- EC50 (Protein smoothened [5]): 966 nM

SMILES: CN[C@H]1CC[C@H](N(Cc2cccc(-c3ccnc(OCCOCCOCCOCCOCCOCCn4cc(COCCOCCOCCOCCOCCOCCOCCOCCCCCC[C@@H](C)C5CC[C@H]6[C@@H]7CC=C8C[C@@H](O)CC[C@]8(C)[C@H]7CC[C@]56C)nn4)c3)c2)C(=O)c2sc3ccccc3c2Cl)CC1 (stereo partly specified)
- EC50 (Protein smoothened [5]): 200 nM

SMILES: CN[C@H]1CC[C@H](N(Cc2cccc(-c3ccnc(OCCOCCOCCOCCOCCn4cc(COCCOCCOCCOCCOCCOCCOCCCCCCC(C)(O)C5CC[C@H]6[C@@H]7CC=C8C[C@@H](O)CC[C@]8(C)[C@H]7CC[C@]56C)nn4)c3)c2)C(=O)c2sc3ccccc3c2Cl)CC1 (stereo partly specified)
- Activity [4]: inactive

SMILES: CC(O)(CCCCCCOCCOCc1cn(CCOCCOCCOCCOCCS(=O)(=O)c2ccc(C(=O)Nc3ccc(Cl)c(-c4ccccn4)c3)c(Cl)c2)nn1)C1CC[C@H]2[C@@H]3CC=C4C[C@@H](O)CC[C@]4(C)[C@H]3CC[C@]12C (stereo partly specified)
- IC50 (Protein smoothened [6]): 20 nM

SMILES: CC(O)(CCCCCCOCCOCc1cn(CCOCCOCCOCCOCCOCCS(=O)(=O)c2ccc(C(=O)Nc3ccc(Cl)c(-c4ccccn4)c3)c(Cl)c2)nn1)C1CC[C@H]2[C@@H]3CC=C4C[C@@H](O)CC[C@]4(C)[C@H]3CC[C@]12C (stereo partly specified)
- Activity [4]: inactive
- Activity [3]: inactive
- IC50 (Protein smoothened [6]): 20 nM
